Experimental data: patent US7132553B2, “Product comprising an inhibitor of the transduction of heterotrimeric G protein signals combined with an anti-hypertensive agent for therapeutic use in the treatment of arterial hypertension” (Societe de Conseils de Recherches et d'Applications …, priority 2000, dated 2006)

How the values were obtained:
[1] = test system: spontaneously hypertensive rats (SHR); assay: Heart rate in anaesthetized spontaneously hypertensive rats (carotid catheter); type: in vivo; parameters: Frequency difference (Δ) (reduction in heart rate): unit not given here; settings: SHR rat; for Frequency difference (Δ) (reduction in heart rate): single product, intravenous, monitored 20 minutes; for reduction in heart rate, maximum difference (delta): baseline 328 to 371 beats per minute (FIG. 2)
Description: (§1) 13/14 week old male SHR rats (Charles River France) are anaesthetized using pentobarbital (Sanofi) (60 mg/kg/IP). […] After a stabilization period of 10 minutes, the product or two products simultaneously are administered and their effects are monitored for 20 minutes.
(§2) For administration purposes, 7-(2-amino-1-oxo-3-thiopropyl)-8-(cyclohexylmethyl)-2-phenyl-5,6,7,8-tetrahydro-imidazo[1,2a]pyrazine, verapamil (Sigma, USA) and captopril (Sigma, USA) can be dissolved in an aqueous solution of NaCl at 0.9%.

[2] = test system: spontaneously hypertensive rats (SHR); assay: Arterial pressure in anaesthetized spontaneously hypertensive rats (carotid catheter); type: in vivo; settings: SHR rat, single intravenous injection, verapamil 0.1 or 0.3 mg/kg, captopril 1 mg/kg; for time of return of arterial pressure to initial values after injection: G protein inhibitor 1 mg/kg; for effect on arterial pressure (in words): G protein inhibitor 1 mg/kg (FIG. 1)
Description: as §1, §2

Row | SMILES | Frequency difference (Δ) (reduction in heart rate) ([1]; dose 1 mg/kg) | change of heart rate (in words) ([1]; single products, single intravenous injection (FIG. 2)) | time of return of arterial pressure to initial values after injection [2] | effect on arterial pressure (in words) [2] | reduction in heart rate, maximum difference (delta) ([1]; 1 mg/kg intravenous) | reduction in heart rate, maximum difference (delta) ([1]; 0.1 mg/kg intravenous) | reduction in heart rate, maximum difference (delta) ([1]; 0.3 mg/kg intravenous) | Frequency difference (Δ) (reduction in heart rate) ([1]; dose 0.1 mg/kg) | Frequency difference (Δ) (reduction in heart rate) ([1]; dose 0.3 mg/kg)
1 | C[C@H](CS)C(=O)N1CCC[C@H]1C(=O)O [Captopril, captopril] | 1 | does not change the heart rate at all | 20 min | immediate reduction | – | – | – | – | –
2 | NC(CS)C(=O)N1CCn2cc(-c3ccccc3)nc2C1CC1CCCCC1 (centres unmarked) [Compound 2, 7-(2-amino-1-oxo-3-thiopropyl)-8-(cyclohexylmethyl)-2-phenyl-5,6,7,8-tetrahydroimidazo[1,2a]pyrazine] | 44 | – | 20 min | immediate reduction | 44 | – | – | – | –
3 | COc1ccc(CCN(C)CCCC(C#N)(c2ccc(OC)c(OC)c2)C(C)C)cc1OC (centres unmarked) [Verapamil, verapamil] | – | – | 20 min | immediate reduction | – | 32 | 56 | 28 | 56
